Patent publication US20250179047A1, “5-[7-(3,4-DIHYDRO-1H-ISOQUINOLINE-2-CARBONYL)-1,2,3,4 TETRAHYDROISOQUINOLIN-6-YL]-1H-PYRROLE-3-CARBOXAMIDE DERIVATIVES, PHARMACEUTICAL COMPOSITIONS CONTAINING THEM AND THEIR USES AS PRO-APOPTOTIC AGENTS” (LES LABORATOIRES SERVIER, priority 2022, published 2025)

Tests used:
BCL2 WT = BCL2 WT (Homo sapiens (Human), UniProt P10415); test: TR-FRET competitive binding assay, BCL2 WT; details: Ki determined from IC50, read-out: TR_FRET EKI_Bcl2 WT
Description: (§1) The relative binding potency of each compound was determined in a competitive binding assay using time resolved-fluorescence resonance energy transfer (TR-FRET). The method utilised a fluorescein labelled peptide derived from PUMA (5Flu-Ahx-[…]-NH2 wherein Ahx means 6-hexanoic acid monomer and the amino acid sequence is referred to as SEQ ID:01) which binds to a terbium labelled BCL2 or BCLXL protein. The degree of binding or corresponding compound inhibition can be quantified by the TR-FRET signal between the terbium donor and fluorescein acceptor.
(§2) The human BCL2_wild-type (also named BCL2_wt), BCL2_G101V mutant and BCLXL_wild-type were E. coli expressed as a N-terminal Halo-fusion proteins and singly labelled with Terbium on the Halo protein to afford the following amino acid sequences:
(§3) wherein the BCL2(1-207) sequence corresponds to UniProtKB® primary accession number P10415 and the BCLXL(2-196) sequence corresponds to UniProtKB® primary accession number Q07817-1.
(§4) The assay was performed in a 40 μL volume in white 384-standard well plates (Corning #3574). An 11-point serial dilution of each compound was prepared in DMSO and transferred directly to plate followed by addition of fluorescein labelled peptide and lastly protein. Final assay conditions were 0.5 nM BCL2_wt, BCL2_G101V, BCL2_D103Y, BCL2_F104I, BCL2_D111A or BCLXL_wt, 2 or 20 nM fluorescein labelled peptide, 50 mM Hepes pH 7.5, 150 mM NaCl, 0.5 mM TCEP (Tris(2-carboxyethyl)phosphine), 0.05% Tween 20, 5% DMSO. The mixture was incubated for 2 hours at 23° C.
(§5) TR-FRET measurements were performed on a Biotek Synergy Neo plate reader. TR-FRET was measured by excitation of the Terbium-donor at 340 nm and subsequent (delay time 100 μs) measurement of terbium and fluorescein emission at 495 nm and 520 nm, respectively, over a collection time of 300 μs. The TR-FRET signal was calculated as the emission-ratio at 520 nm over 495 nm.
(§6) The TR-FRET ratio readout for test compounds was normalized against 0% inhibition controls wells and 100% inhibition control wells. Test compound potency (IC50) was estimated by nonlinear regression using the sigmoidal dose-response (variable slope) using Xlfit 4 (IDBS, Guildford, Surrey, UK, model 205). Were the IC50 could not be determined the % inhibition at the highest tested concentration is given.
(§7) y=(A+((B−A)/(1+((C/x)^D))))
(§8) where y is the normalized TR-TRET ratio measurement for a given concentration of test compound, x is the concentration of test compound, A is the estimated efficacy (% inhibition) at infinite compound dilution, and B is the maximal efficacy (% inhibition). C is the IC50 value and D is the Hill slope coefficient.
(§9) The K1 values were determined from the IC50 values according to Cer et al, Nucleic Acids Res, 2009, July 1; 37 (WebServer issue): W441-W445.

BCL2 G101V [1] = biological target: BCL2 G101V (Homo sapiens, UniProt P10415, G101V); test: TR-FRET competitive binding assay, BCL2 G101V; details: BCL2 G101V; Ki determined from IC50; read-out: TR_FRET EKI_Bcl2 G101V
Description: as §1, §2, §3, §4, §5, §6, §7, §8, §9

BCL2 D103Y = BCL2 D103Y (Homo sapiens, UniProt P10415, D103Y); test: TR-FRET competitive binding assay, BCL2 D103Y; details: Ki determined from IC50, read-out: TR_FRET EKI_Bcl2 D103Y
Description: as §1, §2, §3, §4, §5, §6, §7, §8, §9

BCLXL WT = BCLXL WT (Homo sapiens (Human), UniProt Q07817); test: TR-FRET competitive binding assay, BCLXL WT; details: for Ki: BCLXL WT, Ki determined from IC50, read-out: TR_FRET EKI BclxL; for TR_FRET EKI BCLxL/WT selectivty ratio: ratio Ki BCLxL / Ki BCL2 WT
Chain of BCLXL WT (Q07817 other isoform, or with tags, fused parts or gaps): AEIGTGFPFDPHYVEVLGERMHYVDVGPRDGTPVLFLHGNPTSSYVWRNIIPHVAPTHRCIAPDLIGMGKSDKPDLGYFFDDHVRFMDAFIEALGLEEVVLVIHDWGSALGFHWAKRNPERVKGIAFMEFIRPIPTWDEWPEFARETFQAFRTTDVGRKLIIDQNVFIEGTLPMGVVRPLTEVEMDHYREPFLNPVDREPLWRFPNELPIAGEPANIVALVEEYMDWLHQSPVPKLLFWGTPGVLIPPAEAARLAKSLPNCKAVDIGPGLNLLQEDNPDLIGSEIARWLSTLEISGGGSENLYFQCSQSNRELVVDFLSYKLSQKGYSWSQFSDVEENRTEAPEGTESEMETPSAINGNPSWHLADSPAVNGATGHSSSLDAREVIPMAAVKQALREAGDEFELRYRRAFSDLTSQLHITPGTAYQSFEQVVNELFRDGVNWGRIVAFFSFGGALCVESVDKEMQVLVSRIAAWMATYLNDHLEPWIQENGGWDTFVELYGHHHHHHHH
Description: as §1, §2, §3, §4, §5, §6, §7, §8, §9

KMS-12-PE Bcl-2 WT = test: In vitro cytotoxicity CellTiter-Glo 48 h, KMS-12-PE Bcl-2 WT; format: cell-based; details: Homo sapiens, KMS-12-PE, C50 = concentration needed to reach 50% of the cellular viability
Description: (§10) KMS-12-PE (ACC 606) were purchased from the Leibniz-Institute DSMZ (Braunschweig, Germany) and were grown at 37° C. in a humidified atmosphere with […] in media recommended by the suppliers. Lentiviral particles containing Bcl-2 wild type (also named “Bcl2 WT”) and Bcl-2 mutated on G101V (also named “Bcl2 G101V”) were cloned into pcLV-CMV-DEST-IRES-TagRFP. Lentiviral particles (1×106) were mixed with Polybrene at 8 µg/ml and transduced by spinoculation for 1 h at 32° C. and incubated overnight. After 8 days, TagRFP positive-cells were sorted by FACS. BCL2 expression was monitored by immunoblotting using anti-Flag and anti-BCL2 antibodies.
(§11) Cellular viability was monitored with the cell viability assay (CellTiter-Glo®) on KMS-12-PE WT and G101V cell lines. The CellTiter-Glo® (CTG) Luminescent Cell Viability Assay (from Promega) is a homogeneous method to determine the number of viable cells in culture based on quantitation of the ATP present, which signals the presence of metabolically active cells.
(§12) Dose response of compounds are performed with 10 mM stock solutions (DMSO), 11-points curve, in a 384-well compound plate. The assay plate is prepared by stamping 40 nL from compound dilution plate of all different concentrations (e.g. 10 mM to have final […] assay test) into a cell culture microplate, using Echo acoustic liquid handling (Labcyte, Beckman). 40 μl of cell solution is added and cells are incubated with compounds for 48 h at 37° C., 5% CO2. CTG was added to the cells (according to the manufacturer instructions) and luminescence intensity was recorded using the Pherastar plate reader (BMG).
(§13) This assay provides in vitro cellular potency of the tested Bcl-2 inhibitors, measuring the C50, defined as the concentration needed to reach 50% of the cellular viability.

KMS-12-PE Bcl-2 G101V = test: In vitro cytotoxicity CellTiter-Glo 48 h, KMS-12-PE Bcl-2 G101V; format: cell-based; details: for Ratio (G101V/WT): C50 KMS-12-PE Bcl-2 G101V over C50 KMS-12-PE Bcl-2 WT; for IC50: Homo sapiens, KMS-12-PE, 48 h, CellTiter-Glo, C50 = concentration needed to reach 50% of the cellular viability
Description: as §10, §11, §12, §13

BCL2 G101V [2] = test: TR-FRET competitive binding assay, BCL2 G101V; set-up: species or system human; details: ratio Ki BCL2 G101V / Ki BCL2 WT
Description: as §1, §2, §3, §4, §5, §6, §7, §8, §9

| Structure (SMILES) | Ki (BCL2 WT) | Ki (BCL2 G101V [1]) | Ki (BCL2 D103Y) | Ki (BCLXL WT) | TR_FRET EKI BCLxL/WT selectivty ratio (BCLXL WT) | TR_FRET EKI G101V/WT selectivty ratio (BCL2 G101V [2]) | IC50 (KMS-12-PE Bcl-2 WT) | Ratio (G101V/WT) (KMS-12-PE Bcl-2 G101V) | IC50 (KMS-12-PE Bcl-2 G101V) |
| --- | --- | --- | --- | --- | --- | --- | --- | --- | --- |
| Cc1c(N(C(=O)c2cc(-c3cc4c(cc3C(=O)N3Cc5ccccc5C[C@H]3CN3CCC[C@@H]3C)CN(C(=O)Cc3ccc(OCCN5CCOCC5)cc3F)CC4)n(C)c2C)c2ccc(O)cc2)cc(C#N)n1C [Example 173, N-(5-cyano-1,2-dimethylpyrrol-3-yl)-5-[2-(2-{2-fluoro-4-[2-(morpholin-4-yl)ethoxy]phenyl}acetyl)-7-{[(3S)-3-{[(2S)-2-methylpyrrolidin-1-yl]methyl}-3,4-dihydro-1H-isoquinolin-2-yl]carbonyl}-3,4-dihydro-1H-isoquinolin-6-yl]-N-(4-hydroxyphenyl)-1,2-dimethylpyrrole-3-carboxamide] | 0.03 nM | 0.3 nM | 0.12 nM | 4 nM | 133.3 |  | 0.0084 µM | 5.5095 | 0.0465 µM |
| Cc1cc(OCCN2CCOCC2)c(F)cc1CC(=O)N1CCc2cc(-c3cc(C(=O)N(c4ccc(O)cc4)c4cc(C#N)n(C)c4C)c(C)n3C)c(C(=O)N3Cc4ccccc4C[C@H]3CN3CCCCC3)cc2C1 [Example 223, N-(5-cyano-1,2-dimethyl-pyrrol-3-yl)-5-[2-[2-[5-fluoro-2-methyl-4-(2-morpholinoethoxy)phenyl]acetyl]-7-[(3S)-3-(1-piperidylmethyl)-3,4-dihydro-1H-isoquinoline-2-carbonyl]-3,4-dihydro-1H-isoquinolin-6-yl]-N-(4-hydroxyphenyl)-1,2-dimethyl-pyrrole-3-carboxamide] | 0.18 nM | 1.6 nM | 0.26 nM | 4.3 nM | 24.6 | 9.3 |  |  |  |
| Cc1c(N(C(=O)c2cc(-c3cc4c(cc3C(=O)N3Cc5ccccc5C[C@H]3C)CN(C(=O)Cc3ccc(OCCC5CCN(C)CC5)nc3)CC4)n(C)c2C)c2ccc(O)cc2)cc(C#N)n1C [Example 232] |  |  |  |  |  |  | 0.0328 µM | 2.0 | 0.0657 µM |
| COCc1ccc(CC(=O)N2CCc3cc(-c4cc(C(=O)N(c5ccc(O)cc5)c5cc(C#N)n(C)c5C)c(C)n4C)c(C(=O)N4Cc5ccccc5C[C@H]4C)cc3C2)cc1 [Example 87, N-(5-cyano-1,2-dimethyl-1H-pyrrol-3-yl)-N-(4-hydroxyphenyl)-5-(2-{2-[4-(methoxymethyl)phenyl]acetyl}-7-[(3R)-3-methyl-1,2,3,4-tetrahydroisoquinoline-2-carbonyl]-1,2,3,4-tetrahydroisoquinolin-6-yl)-1,2-dimethyl-1H-pyrrole-3-carboxamide] | 0.12 nM | 0.5 nM | 0.46 nM | 1.3 nM | 10.8 |  | 0.0073 µM | 5.43 | 0.0394 µM |
| Cc1c(C(=O)N(c2ccc(O)cc2)c2cnn(C(F)F)c2)cc(-c2cc3c(cc2C(=O)N2Cc4ccccc4C[C@H]2C)CN(C(=O)Cc2ccc(OCCN4CCOCC4)cc2F)CC3)n1C [Example 186, N-[1-(difluoromethyl)pyrazol-4-yl]-5-[2-[2-[2-fluoro-4-(2-morpholinoethoxy)phenyl]acetyl]-7-[(3R)-3-methyl-3,4-dihydro-1H-isoquinoline-2-carbonyl]-3,4-dihydro-1H-isoquinolin-6-yl]-N-(4-hydroxyphenyl)-1,2-dimethyl-pyrrole-3-carboxamide] | 0.01 nM | 0.2 nM | 0.04 nM | 5.3 nM | 410.0 |  | 0.0047 µM |  |  |
| Cc1c(N(C(=O)c2cc(-c3cc4c(cc3C(=O)N3Cc5ccccc5C[C@H]3C)CN(C(=O)Cc3cccc(N5CCCN(C)CC5)c3)CC4)n(C)c2C)c2ccc(O)cc2)cc(C#N)n1C [Example 231] |  |  |  |  |  |  | 0.0391 µM |  |  |

Now from value to compound, other results behind:

| Ki (BCL2 WT) | Ki (BCL2 G101V [1]) | Ki (BCL2 D103Y) | Ki (BCLXL WT) | TR_FRET EKI BCLxL/WT selectivty ratio (BCLXL WT) | TR_FRET EKI G101V/WT selectivty ratio (BCL2 G101V [2]) | Structure (SMILES) | IC50 (KMS-12-PE Bcl-2 WT) | Ratio (G101V/WT) (KMS-12-PE Bcl-2 G101V) | IC50 (KMS-12-PE Bcl-2 G101V) |
| --- | --- | --- | --- | --- | --- | --- | --- | --- | --- |
| 0.05 nM | 1.2 nM | 0.09 nM | 16.4 nM | 322.5 |  | COc1ncc(N(C(=O)c2cc(-c3cc4c(cc3C(=O)N3Cc5ccccc5C[C@H]3C)CN(C(=O)Cc3ccc(OCCN5CCOCC5)cc3)CC4)n(C)c2C)c2ccccc2)cc1C#N [Example 201, N-(5-cyano-6-methoxy-3-pyridyl)-1,2-dimethyl-5-[7-[(3R)-3-methyl-3,4-dihydro-1H-isoquinoline-2-carbonyl]-2-[2-[4-(2-morpholinoethoxy)phenyl]acetyl]-3,4-dihydro-1H-isoquinolin-6-yl]-N-phenyl-pyrrole-3-carboxamide] | 0.0394 µM |  |  |
| 0.01 nM | 1.4 nM | 0.07 nM | 0.6 nM | 58.6 |  | COc1ncc(N(C(=O)c2cc(-c3cc4c(cc3C(=O)N3Cc5ccccc5C[C@H]3C)CN(C(=O)Cc3cccc(N5CC6(CN(C)C6)C5)c3)CC4)n(C)c2C)c2ccccc2)cc1F [Example 198, N-(5-fluoro-6-methoxy-3-pyridyl)-1,2-dimethyl-5-[2-[2-[3-(6-methyl-2,6-diazaspiro[3.3]heptan-2-yl)phenyl]acetyl]-7-[(3R)-3-methyl-3,4-dihydro-1H-isoquinoline-2-carbonyl]-3,4-dihydro-1H-isoquinolin-6-yl]-N-phenyl-pyrrole-3-carboxamide] | 0.0349 µM |  |  |
| 0.08 nM | 4.6 nM | 0.19 nM | 8.8 nM | 116.3 |  | Cc1c(C(=O)N(c2ccccc2)c2cnn(C(F)F)c2)cc(-c2cc3c(cc2C(=O)N2Cc4ccccc4C[C@H]2C)CN(C(=O)Cc2ccc(OCCN(C)C)cc2)CC3)n1C [Example 199, N-[1-(difluoromethyl)pyrazol-4-yl]-5-[2-[2-[4-[2-(dimethylamino)ethoxy]phenyl]acetyl]-7-[(3R)-3-methyl-3,4-dihydro-1H-isoquinoline-2-carbonyl]-3,4-dihydro-1H-isoquinolin-6-yl]-1,2-dimethyl-N-phenyl-pyrrole-3-carboxamide] | 0.0244 µM |  |  |
